Experimental data as given in patent US20030225272A1, “Novel mmp-2/mmp-9 inhibitors” (priority 2003, published 2003).

How the values were obtained:
[1] = target: T1, purified recombinant human MMP-9 (Homo sapiens, UniProt P14780); test: MMP-9 quenched fluorescence screening assay; assay type: biochemical; details: 96-well quenched fluorescence assay, fluorogenic peptide substrate, 30 minutes at 37 C
T1 construct: made in house
Procedure: (§1) A high-throughput, 96-well screen was used to measure MMP-9 activity and to detect potential inhibitors of MMP-9. The screen is a quenched fluorescence assay. The components of the assay include purified recombinant human MMP-9 (generated by. SB, 3 nM final concentration) and a fluorogenic peptide substrate (Peptides International, Louisville, Ky., 10 (M final concentration) incubated in the presence or absence of compound. Briefly, enzyme activity is measured after 30 minutes incubation at 37(C. and quantitated using a peptide substrate, (Dnp-Pro-Cha-Gly-Cys(Me)-His-Ala-Lys(NMa)-NH2 or (2,4-Dinitrophenyl-L-Prolyl-L-Cyclohexylalanyl-Glycyl(-Methyl-L-Cysteinyl-L-Histidyl-L-Alanyl-N(-Methylenthranoyl-L-Lysine Amide) containing a fluorophore, Nma, on one end of the peptide and a quencher, Dnp, on the other end. When the peptide is intact, the fluorophore is quenched. When the peptide is cleaved by MMP-9, the quencher is dissociated from the fluorophore and a fluorescent signal is emitted that can easily be detected using a fluorescent plate reader. The universal cleavage site within the peptide that is recognized by MMP-1, -2, -3, -9 and -13 is the Gly-Cys bond.
(§2) A 96-well quenched fluorescence assay was used to measure MMP-9 and MMP-2 activity and to detect potential inhibitors of MMP-9 and MMP-2. […] For these additional screens, an IC50 value was determined. […]

[2] = target: T2, purified recombinant human MMP-2 (Homo sapiens, UniProt P08253); test: MMP-2 quenched fluorescence screening assay; assay type: biochemical; details: 96-well quenched fluorescence assay, same fluorogenic peptide substrate
T2 construct: made in house
T2 sequence (P08253 110-660): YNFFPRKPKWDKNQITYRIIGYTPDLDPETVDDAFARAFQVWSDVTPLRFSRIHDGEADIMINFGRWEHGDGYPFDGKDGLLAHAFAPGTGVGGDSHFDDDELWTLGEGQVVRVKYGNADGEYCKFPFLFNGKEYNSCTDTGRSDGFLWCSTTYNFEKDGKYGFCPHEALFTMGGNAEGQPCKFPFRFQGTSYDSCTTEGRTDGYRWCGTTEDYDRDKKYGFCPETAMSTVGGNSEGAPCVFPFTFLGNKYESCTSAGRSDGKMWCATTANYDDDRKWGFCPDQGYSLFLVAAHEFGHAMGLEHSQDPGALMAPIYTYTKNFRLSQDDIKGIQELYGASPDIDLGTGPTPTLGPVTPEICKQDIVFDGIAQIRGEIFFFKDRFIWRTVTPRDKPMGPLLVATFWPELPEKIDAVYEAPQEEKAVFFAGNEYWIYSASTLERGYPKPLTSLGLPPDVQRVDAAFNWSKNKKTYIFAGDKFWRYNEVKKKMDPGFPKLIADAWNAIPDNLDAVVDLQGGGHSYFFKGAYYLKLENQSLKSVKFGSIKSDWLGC
Procedure: as §1, §2

T1 sequence (P14780 94-707): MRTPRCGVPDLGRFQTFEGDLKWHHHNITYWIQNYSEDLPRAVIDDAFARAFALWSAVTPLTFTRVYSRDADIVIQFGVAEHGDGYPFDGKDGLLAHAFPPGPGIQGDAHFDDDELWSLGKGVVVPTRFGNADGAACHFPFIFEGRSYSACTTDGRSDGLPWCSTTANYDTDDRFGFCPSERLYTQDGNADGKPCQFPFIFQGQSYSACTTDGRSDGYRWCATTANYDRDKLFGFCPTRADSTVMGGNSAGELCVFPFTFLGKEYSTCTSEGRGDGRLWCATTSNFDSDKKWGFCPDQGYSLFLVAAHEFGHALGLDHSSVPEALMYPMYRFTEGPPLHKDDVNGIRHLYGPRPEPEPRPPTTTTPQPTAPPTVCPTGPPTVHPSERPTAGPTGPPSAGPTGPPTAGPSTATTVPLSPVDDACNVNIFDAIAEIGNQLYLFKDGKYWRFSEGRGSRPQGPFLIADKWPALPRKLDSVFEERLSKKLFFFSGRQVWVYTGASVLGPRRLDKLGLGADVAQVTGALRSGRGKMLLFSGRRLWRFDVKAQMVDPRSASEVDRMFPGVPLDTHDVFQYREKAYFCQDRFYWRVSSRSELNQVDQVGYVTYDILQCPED

## CCCCCCCCC[C@H](CC(=O)O)C(=O)N[C@@H](C(=O)NC)c1ccccc1 [Example 1, N-[2(R)-Nonylsuccinic acid]-L-phenylglycine-N-methylamide]
[1]
  MMP-9 inhibition (screening result in words): identified as a dual MMP-2/MMP-9 inhibitor
[2]
  MMP-2 inhibition (screening result in words): identified as a dual MMP-2/MMP-9 inhibitor
